Test system: BEAS-2B
Test: Comprehensive gene expression analysis with Whole Human Genome DNA microarray after EP treatment
Assay type: cell-based
Experimental: Cells of the established normal human airway epithelial cell line BEAS-2B were used in the experiment. These cells were expansively cultured in 10% FBS RPMI-1640, and seeded at a density of 1×10^5/cm^2 on a 24-well plate. After 24 hours 0.1% FBS RPMI-1640 was substituted, and EP was administered to a final concentration of 0 or 1 mM (n=4). After 24 hours, the cells were used as the DNA microarray samples. RNA was extracted using a QIAGEN RNeasy Mini Kit. The DNA microarray test was performed using a Whole Human Genome DNA microarray 4×44K (Agilent), and the necessary labeling reagents and the like for the DNA microarray test were all from Agilent. The DNA microarray test data were analyzed statistically with GeneSpring (Agilent) dedicated analysis software, and gene function analysis (Gene Ontology (GO) analysis) was performed based on differential expression. The purpose of the GO analysis is to determine stochastically the degree to which gene sets with statistically significant differential expression correspond to known functional classification gene sets. […] The p-value is calculated according to the following formula.

[1] = probe A_23_P1361, NM_002860, EP vs control
[2] = probe A_23_P5392, 1 mM EP, 24 h
[3] = probe A_23_P8961, NM_000880, EP vs control
[4] = probe A_23_P15247, 1 mM EP, 24 h
[5] = probe A_23_P16523, NM_004864, EP vs control
[6] = probe A_23_P21134, 1 mM EP, 24 h
[7] = probe A_23_P23960, 1 mM EP, 24 h
[8] = probe A_23_P25354, 1 mM EP, 24 h
[9] = probe A_23_P28625, 1 mM EP, 24 h

## NCCOP(=O)(O)O [EP, Ethanolamine phosphate]
P2RX7, probe A_23_P25354
  R*: Ratio to control: 0.561 times
  log2 [ratio]: −0.834
P2RX7, probe A_24_P319113
  R*: Ratio to control: 0.586 times
  log2 [ratio]: −0.772
PERP, probe A_23_P214950
  R*: Ratio to control: 0.521 times
  log2 [ratio]: −0.941
PHLDA3, probe A_23_P62959
  R*: Ratio to control: 0.271 times
  log2 [ratio]: −1.884
PLK1, probe A_23_P118174
  R*: Ratio to control: 2.447 times
  log2 [ratio]: 1.291
PLK1, probe A_24_P313504
  R*: Ratio to control: 1.939 times
  log2 [ratio]: 0.955
PMAIP1, probe A_23_P207999
  R*: Ratio to control: 0.344 times
  log2 [ratio]: −1.540
PML, probe A_23_P358944
  R*: Ratio to control: 0.586 times
  log2 [ratio]: −0.770
PPAP2B, probe A_23_P201808
  R*: Ratio to control: 1.919 times
  log2 [ratio]: 0.941
ROBO4, probe A_23_P104881
  R*: Ratio to control: 1.785 times
  log2 [ratio]: 0.836
ROBO4, probe A_23_P344421
  R*: Ratio to control: 1.633 times
  log2 [ratio]: 0.707
RTN4, probe A_23_P56933
  R*: Ratio to control: 1.510 times
  log2 [ratio]: 0.594
SEMA4D, probe A_24_P261169
  R*: Ratio to control: 0.558 times
  log2 [ratio]: −0.842
SEPT4, probe A_23_P207003
  R*: Ratio to control: 0.503 times
  log2 [ratio]: −0.990
SKP2, probe A_23_P156310
  R*: Ratio to control: 1.531 times
  log2 [ratio]: 0.615
SOX7, probe A_23_P169738
  R*: Ratio to control: 0.362 times
  log2 [ratio]: −1.464
SOX7, probe A_23_P306987
  R*: Ratio to control: 0.338 times
  log2 [ratio]: −1.566
SOX7, probe A_24_P226782
  R*: Ratio to control: 0.607 times
  log2 [ratio]: −0.720
SST, probe A_23_P252817
  R*: Ratio to control: 0.666 times
  log2 [ratio]: −0.587
TACSTD2, probe A_23_P149529
  R*: Ratio to control: 1.507 times
  log2 [ratio]: 0.591
TGFBR2, probe A_23_P211957
  R*: Ratio to control: 1.634 times
  log2 [ratio]: 0.708
TGFBR2, probe A_23_P337242
  R*: Ratio to control: 1.630 times
  log2 [ratio]: 0.705
TNFRSF17, probe A_23_P37736
  R*: Ratio to control: 2.525 times
  log2 [ratio]: 1.336
VEGFC, probe A_23_P167096
  R*: Ratio to control: 1.637 times
  log2 [ratio]: 0.711
WARS2, probe A_23_P74380
  R*: Ratio to control: 1.594 times
  log2 [ratio]: 0.673
WDR12, probe A_23_P28625
  R*: Ratio to control: 1.676 times
  log2 [ratio]: 0.745
ZFPM2, probe A_23_P168909
  R*: Ratio to control: 1.678 times
  log2 [ratio]: 0.746
[1]
  ALDH18A1 gene expression, R* ratio to control: 1.460 times
  ALDH18A1 gene expression, log2 [ratio]: 0.546
[2]
  TP53I3 expression R*: Ratio to control: 0.423 times
  TP53I3 expression log2 [ratio]: −1.241
[3]
  IL7 gene expression, R* ratio to control: 0.103 times
  IL7 gene expression, log2 [ratio]: −3.273
[4]
  C16orf5 expression R*: Ratio to control: 0.519 times
  C16orf5 expression log2 [ratio]: −0.947
[5]
  GDF15 gene expression, R* ratio to control: 0.104 times
  GDF15 gene expression, log2 [ratio]: −3.265
[6]
  DDIT3 expression R*: Ratio to control: 0.210 times
  DDIT3 expression log2 [ratio]: −2.249
[7]
  BLOC1S2 expression R*: Ratio to control: 0.398 times
  BLOC1S2 expression log2 [ratio]: −1.336
[8]
  P2RX7 expression R: Ratio to control: 0.661 times
  P2RX7 expression log2 [ratio]: −0.834
[9]
  WDR12 expression R*: Ratio to control: 1.676 times
  WDR12 expression log2 [ratio]: 0.745
Probe A_23_P29754, NM_203314, EP vs control
  BDH1 gene expression, R* ratio to control: 1.462 times

Reference: patent US20150164762A1, “USE OF ETHANOLAMINE PHOSPHATE” (priority 2012, published 2015)
